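Five compound concentrations were applied to cells in 96-well plates for 48 hours; endpoints were derived by simple linear interpolation of the resulting dose-response curve. GI50 is the concentration that inhibits growth by half.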 The source made the active and inactive calls. Rule as the data show it: active = GI50 up to about 1.1 µM and inactive = higher.
Legend:
Test in all cases: NCI anticancer screen, dose series, 48 h
RXF 393 = tested on: RXF 393
K562 = tested on: K562
HOP-62 = tested on: HOP-62
CCRF-CEM = tested on: CCRF-CEM
SK-MEL-2 = tested on: SK-MEL-2
KM12 = tested on: KM12
OVCAR-5 = tested on: OVCAR-5
SK-MEL-28 = tested on: SK-MEL-28
HT-29 = tested on: HT-29
OVCAR-4 = tested on: OVCAR-4
SK-OV-3 = tested on: SK-OV-3
Malme-3M = tested on: Malme-3M
UO-31 = tested on: UO-31
A498 = tested on: A498
SF-268 = tested on: SF-268
786-0 = tested on: 786-0

Measured: GI50

COc1cc([C@@H]2OCC3C(c4ccc5c(c4)OCO5)OCC32)cc(OC)c1OC (some centres undefined)
inactive: RXF 393 > 100 µM | K562 54.1 µM | HOP-62 > 100 µM | CCRF-CEM > 100 µM | SK-MEL-2 > 100 µM | KM12 > 100 µM | OVCAR-5 > 100 µM | SK-MEL-28 > 100 µM | HT-29 > 100 µM | OVCAR-4 > 100 µM | SK-OV-3 > 100 µM | Malme-3M > 100 µM | UO-31 > 100 µM | A498 > 100 µM | SF-268 > 100 µM | 786-0 > 100 µM

O=C1c2ccc3c4ccccc4n(Cc4ccccc4)c3c2C(=O)N1c1ccccc1
inactive: RXF 393 12.7 µM | K562 6.07 µM | HOP-62 > 36.9 µM | CCRF-CEM 1.88 µM | SK-MEL-2 22.9 µM | KM12 15.5 µM | OVCAR-5 17.6 µM | SK-MEL-28 17 µM | HT-29 16.4 µM | OVCAR-4 8.3 µM | SK-OV-3 24.9 µM | Malme-3M 16.2 µM | UO-31 16.5 µM | A498 25.1 µM | SF-268 19.9 µM | 786-0 13.8 µM

C/C(COc1ccccc1)=N\NC(N)=S
inactive: RXF 393 > 100 µM | K562 > 100 µM | HOP-62 > 100 µM | CCRF-CEM 61.7 µM | SK-MEL-2 > 100 µM | KM12 68.1 µM | OVCAR-5 > 100 µM | SK-MEL-28 > 100 µM | HT-29 61.9 µM | OVCAR-4 > 100 µM | SK-OV-3 > 100 µM | Malme-3M > 100 µM | UO-31 > 100 µM | A498 > 100 µM | SF-268 > 100 µM | 786-0 > 100 µM

C=C1C(=O)OC2/C=C(\C)C(O)/C=C\C(C)(O)CC(OC(=O)/C(C)=C/C)C12 (centres undefined)
inactive: RXF 393 18 µM | K562 9.64 µM | HOP-62 > 100 µM | CCRF-CEM > 32.5 µM | SK-MEL-2 19.7 µM | KM12 40.6 µM | OVCAR-5 > 100 µM | SK-MEL-28 18.3 µM | HT-29 33.1 µM | OVCAR-4 44.6 µM | SK-OV-3 > 100 µM | Malme-3M 21.4 µM | UO-31 > 70.1 µM | A498 > 100 µM | SF-268 76.9 µM | 786-0 20.8 µM

CCOC(=O)CC(NCc1ccc(/N=C/c2nc3ccc(C(F)(F)F)cc3nc2-c2ccccc2)cc1)C(=O)OCC (centres undefined)
inactive: RXF 393 15.2 µM | K562 > 100 µM | HOP-62 29 µM | CCRF-CEM > 100 µM | SK-MEL-2 > 47.3 µM | KM12 > 100 µM | OVCAR-5 > 100 µM | SK-MEL-28 > 100 µM | HT-29 > 100 µM | OVCAR-4 > 100 µM | SK-OV-3 29 µM | Malme-3M > 100 µM | UO-31 > 100 µM | A498 > 61.1 µM | SF-268 > 100 µM | 786-0 15.3 µM

O=C(Nc1ccc(C(F)(F)F)cc1[N+](=O)[O-])C(=O)C1NC(=S)NC1=O (centres undefined)
inactive: RXF 393 > 100 µM | K562 > 100 µM | HOP-62 > 100 µM | CCRF-CEM > 100 µM | SK-MEL-2 > 100 µM | KM12 > 100 µM | OVCAR-5 > 100 µM | SK-MEL-28 > 100 µM | HT-29 > 100 µM | OVCAR-4 > 100 µM | SK-OV-3 > 100 µM | Malme-3M > 100 µM | UO-31 > 100 µM | A498 53 µM | SF-268 > 100 µM | 786-0 > 100 µM

C[N+](C)(C)CC(=O)N/N=C(\C(=O)NC1=C(Cl)C(=O)c2ccccc2C1=O)C(C#N)c1csc(-c2ccc([N+](=O)[O-])cc2)n1 (centres undefined)
inactive: RXF 393 > 100 µM | K562 > 100 µM | HOP-62 > 100 µM | CCRF-CEM > 100 µM | SK-MEL-2 > 100 µM | KM12 > 100 µM | OVCAR-5 > 100 µM | SK-MEL-28 > 100 µM | HT-29 > 100 µM | OVCAR-4 > 100 µM | SK-OV-3 > 100 µM | Malme-3M > 100 µM | UO-31 > 100 µM | A498 > 100 µM | SF-268 > 100 µM | 786-0 > 100 µM

C[C@]12CCc3nonc3C1CC[C@@H]1C2CC[C@@]2(C)C1CC[C@@H]2O (some centres undefined)
inactive: RXF 393 > 100 µM | K562 > 100 µM | HOP-62 > 100 µM | CCRF-CEM > 100 µM | SK-MEL-2 > 100 µM | KM12 > 100 µM | OVCAR-5 > 100 µM | SK-MEL-28 > 100 µM | HT-29 > 100 µM | OVCAR-4 > 100 µM | SK-OV-3 > 100 µM | Malme-3M > 100 µM | UO-31 > 100 µM | A498 > 100 µM | SF-268 > 100 µM | 786-0 > 100 µM

COC(=O)C(=O)C(C(=O)C(=O)Nc1cccc(C(C)=O)c1)c1nc2ccc([N+](=O)[O-])cc2nc1O (centres undefined)
inactive: RXF 393 > 100 µM | K562 > 100 µM | HOP-62 > 100 µM | CCRF-CEM > 100 µM | SK-MEL-2 > 100 µM | KM12 > 100 µM | OVCAR-5 > 100 µM | SK-MEL-28 > 100 µM | HT-29 > 100 µM | OVCAR-4 > 100 µM | SK-OV-3 > 100 µM | Malme-3M > 100 µM | UO-31 > 100 µM | A498 > 100 µM | SF-268 > 100 µM | 786-0 > 100 µM

Source: ChEMBL document CHEMBL1201862, “PubChem BioAssay data set” (2004)
